In ChEMBL document CHEMBL1649467, “Impact of human serum albumin on oritavancin in vitro activity against enterococci” (Antimicrob Agents Chemother, 2009) one finds Cmax, MIC and log10CFU/ml data, which are given here for one molecule.

In brackets after ≈: the same amount, converted by molar mass.

The nature of series [1]: Cmax in healthy human male at 600 mg, po every 12 hrs by LC/MS/MS analysis. It counts as ADME, organism-based. Further details: dose 600 mg, route oral. Conditions: in vivo.
Series [2] deals with Enterococcus faecium. The series is described as follows: Antimicrobial activity against vancomycin-resistant Enterococcus faecium ATCC 51559 by broth dilution method. It counts as functional. On the technique in general: In broth dilution the organism is exposed to a series of concentrations in liquid medium.
Series [3] deals with Enterococcus faecium. The series is described as follows: Antimicrobial activity against vancomycin-resistant Enterococcus faecium 1119175 by broth dilution method. In kind it is functional.
Series [4] concerns Enterococcus faecium. As to the kind of experiment: Antimicrobial activity against vancomycin-resistant Enterococcus faecium 1059060 by broth dilution method. In kind it is functional.
The subject of series [5] is Enterococcus faecium. As to the kind of experiment: Antimicrobial activity against vancomycin-resistant Enterococcus faecium ATCC 51559 by broth dilution method in presence of 4% HAS. In kind it is functional.
Series [6] deals with Enterococcus faecium. As to the kind of experiment: Antimicrobial activity against vancomycin-resistant Enterococcus faecium 1119175 by broth dilution method in presence of 4% HSA. In kind it is functional.
Series [7] has as its system Enterococcus faecium. The series is described as follows: Antimicrobial activity against vancomycin-resistant Enterococcus faecium 1059060 by broth dilution method in presence of 4% HSA. In kind it is functional.
Series [8] has as its system Enterococcus faecium. As to the kind of experiment: Bactericidal activity against vancomycin-resistant Enterococcus faecium 1119175 expressing vanB gene assessed as change in bacterial count at 4 ug/ml by time-kill assay. It counts as functional.
Series [9] deals with Enterococcus faecium. The series is described as follows: Bactericidal activity against vancomycin-resistant Enterococcus faecium 1059060 expressing vanA gene assessed as change in bacterial count at 4 ug/ml by time-kill assay. In kind it is functional.
Series [10] relates to Enterococcus faecalis. The series is described as follows: Bactericidal activity against vancomycin-susceptible Enterococcus faecalis ATCC 29212 assessed as change in bacterial count at 16 ug/ml by time-kill assay. In kind it is functional.
For series [11], the system named is Enterococcus faecium. As to the kind of experiment: Bactericidal activity against vancomycin-resistant Enterococcus faecium ATCC 51559 expressing vanA gene assessed as change in bacterial count at 16 ug/ml by time-kill assay. In kind it is functional.
The test system of series [12] is Enterococcus faecalis. The series is described as follows: Bactericidal activity against vancomycin-resistant Enterococcus faecalis ATCC 51299 expressing vanB gene assessed as change in bacterial count at 16 ug/ml by time-kill assay. In kind it is functional.
Series [13] relates to Enterococcus faecalis. The series is described as follows: Bactericidal activity against vancomycin-resistant Enterococcus faecalis 1058946 expressing vanA gene assessed as change in bacterial count at 16 ug/ml by time-kill assay. In kind it is functional.
The test system of series [14] is Enterococcus faecium. The series is described as follows: Bactericidal activity against vancomycin-resistant Enterococcus faecium 1119175 expressing vanB gene assessed as change in bacterial count at 16 ug/ml by time-kill assay. In kind it is functional.
The subject of series [15] is Enterococcus faecium. As to the kind of experiment: Bactericidal activity against vancomycin-resistant Enterococcus faecium 1059060 expressing vanA gene assessed as change in bacterial count at 16 ug/ml by time-kill assay. In kind it is functional.
The test system of series [16] is Enterococcus faecalis. As to the kind of experiment: Bactericidal activity against vancomycin-susceptible Enterococcus faecalis ATCC 29212 assessed as change in bacterial count at 4 ug/ml by time-kill assay. In kind it is functional.
For series [17], the system named is Enterococcus faecium. The series is described as follows: Bactericidal activity against vancomycin-resistant Enterococcus faecium ATCC 51559 expressing vanA gene assessed as change in bacterial count at 4 ug/ml by time-kill assay. It counts as functional.
Series [18] has as its system Enterococcus faecalis. As to the kind of experiment: Bactericidal activity against vancomycin-resistant Enterococcus faecalis ATCC 51299 expressing vanB gene assessed as change in bacterial count at 4 ug/ml by time-kill assay. In kind it is functional.
In series [19] the test system is Enterococcus faecalis. The series is described as follows: Bactericidal activity against vancomycin-resistant Enterococcus faecalis 1058946 expressing vanA gene assessed as change in bacterial count at 4 ug/ml by time-kill assay. In kind it is functional.

What is called Cmax is the highest concentration seen after dosing. A word on the MIC: it is the lowest concentration found to suppress growth.

`CC(=O)NC[C@H]1CN(c2ccc(N3CCOCC3)c(F)c2)C(=O)O1` [LINEZOLID]: the Cmax in series [1] was determined as 16000 ng/mL. Also, the MIC was determined as 1 µg/mL (≈ 2.96 µM) in the series on Enterococcus faecium [2]; 2 µg/mL (≈ 5.93 µM) against Enterococcus faecium [3]; 1 µg/mL (≈ 2.96 µM) against Enterococcus faecium [4]; 2 µg/mL in the series with Enterococcus faecium [5]; 2 µg/mL in the series with Enterococcus faecium [6]; 1 µg/mL in the series on Enterococcus faecium [7]. For the same molecule, the log10CFU/ml is 0.2 with Enterococcus faecium [8]; -0.35 with Enterococcus faecium [9]; 0.11 in the series with Enterococcus faecalis [10]; -2 with Enterococcus faecium [11]; -0.35 with Enterococcus faecalis [12]; 0.08 in the series with Enterococcus faecalis [13]. Also, the log10CFU/ml in the series on Enterococcus faecium [14] is given as -0.72; with Enterococcus faecium [15] it was -0.42; in the series on Enterococcus faecalis [16], 0.13; in the series with Enterococcus faecium [17], -0.63; in the series on Enterococcus faecalis [18], -0.5; in the series on Enterococcus faecalis [19] it was 0.78.
